Results taken from patent US9434705B2, “L-setastine hydrochloride and preparation method thereof” (ANHUI QINGYUN PHARMACEUTICAL & CHEMICAL CO., LTD., priority 2011, dated 2016).

Tests used:
[1] = tested on: guinea pigs; conditions: background statement; cited from earlier work
[2] = tested on: patients; conditions: racemic drug, China market; cited from earlier work
[3] = tested on: guinea pigs; assay: histamine-induced death of guinea pigs after oral dosing of test sample; format: in vivo, guinea pig; conditions: for Number of death: gavage for two days, then histamine 20 mg/kg, deaths within 24 hours, + = died next day; for Death Percentage: histamine 20 mg/kg; for protective effect on histamine-induced death for guinea pigs: 0.16-0.68 mg/kg, result in words
Procedure: 1. Sample name: KL-001 (R-setastine hydrochloride prepared in embodiment 6), KL-002 (L-setastine hydrochloride prepared from embodiment 2, 3, 4, 5, or 6), and KL-003 (setastine hydrochloride racemic) provided by Anhui Kelong medicine research institute).
2. The specifications of content: There are three groups of each sample, which is high, medium, and small-dose group, wherein dosages for high, medium, small-dose group are 0.68 mg/kg, 0.32 mg/kg, and 0.16 mg/kg respectively. The dosages are considerable 20, 10, and 5 times comparing with the clinical dosages.
3. The preparation method for test sample: For the KL-001 sample, 84 ml of distilled water is added to KL-001 sample so as to obtain a large-dose group of KL-001, which is according to the gavage feeding volume of guinea pigs, which is 0.1 ml/100 g, which is the same as 0.68 mg/kg; and medium and small-does group of KL-001 are diluted by the high-dose group of KL-001 for double and quadruple times. For the KL-002 sample, 125 ml of distilled water is added to KL-002 sample to obtain a large-dose group of KL-002, which is according to the gavage feeding volume of guinea pigs, which is 0.1 ml/100 g, which is the same as 0.68 mg/kg; and medium and small-does group are diluted by the high-dose group for double and quadruple times. For KL-003 sample, 75 ml of distilled water is added to KL-003 sample so as to obtain a large-dose group of KL-003, which is according to the gavage feeding volume of guinea pigs, which is 0.1 ml/100 g, which is the same as 0.68 mg/kg; and medium and small-does group of KL-003 are diluted by the high-dose group of Kl-003 for double and quadruple times.
112 guinea pigs are fed in the feeding environment (to adapt in the environment) for three days, and are randomly divided into 10 groups, namely a control group, a high-dose group of KL-001, a medium-dose group of KL-001, a small-dose group of KL-001, a high-dose group of KL-002, a medium-dose group of KL-002, a small-dose group of KL-002, a high-dose group of KL-003, a medium-dose group of KL-003, and a small-dose group of KL-003. The dosage for high-dose group of Kl-001, KL-002, and Kl-003 is 0.68 mg/kg, and the dosage for medium-dose group of Kl-001, KL-002, and Kl-003 is 0.32 mg/kg, and the dosage for small-dose group of Kl-001, KL-002, and Kl-003 is 0.16 mg/kg, which are 20, 10, 5 times respectively comparing with the clinical dose. Each guinea pig from each group is fed by corresponding amounts of test sample for two days, which is according to the amount of 0.1 ml/100 g. Finally, each guinea pig is fed with lethal dose of histamine, which is 20 mg/kg after the last injection of test sample, and then observing the number of deaths of guinea pigs within 24 hours.

[4] = inventors' finding on antihistaminic effect and sedation of D-setastine hydrochloride; conditions: result in words

| SMILES | histamine-induced bronchial spasms [1] | sedative side effects in clinical use [2] | Number of death ([3]; 0.16 mg/kg (small dose)) | Death Percentage ([3]; 0.16 mg/kg (small dose)) [%] | Number of death ([3]; 0.32 mg/kg (medium dose)) | Death Percentage ([3]; 0.32 mg/kg (medium dose)) [%] | Number of death ([3]; 0.68 mg/kg (high dose)) | Death Percentage ([3]; 0.68 mg/kg (high dose)) [%] | protective effect on histamine-induced death for guinea pigs [3] | protective effect on histamine-induced death for guinea pigs ([3]; listed as setastine hydrochloride racemic) | protective effect on histamine-induced death for guinea pigs ([3]; listed as L-setastine hydrochloride) | protective effect compared with setastine hydrochloride racemic ([3]; comparison in words) | antihistaminic effect [4] | side effects of sedation [4] | protective effect on histamine-induced death for guinea pigs ([3]; listed as D-setastine hydrochloride) | protective effect on histamine-induced death for guinea pigs ([3]; listed as Kl-001) |
| --- | --- | --- | --- | --- | --- | --- | --- | --- | --- | --- | --- | --- | --- | --- | --- | --- |
| CC(OCCN1CCCCCC1)(c1ccccc1)c1ccc(Cl)cc1 (racemic) [KL-003] | inhibit | stronger sedative side effects | 6 + 2 | 66 | 3 + 1 | 36 | 1 + 1 | 16 | significant protective effect | have protective effects |  |  |  |  |  |  |
| C[C@@](OCCN1CCCCCC1)(c1ccccc1)c1ccc(Cl)cc1 [KL-002] |  |  | 4 + 1 | 45 | 2 | 18 | 0 | 0 | significant protective effect |  | have protective effects | stronger |  |  |  |  |
| CC(OCCN1CCCCCC1)(c1ccccc1)c1ccc(Cl)cc1.Cl (stereo not drawn) |  |  | 11 | 100 | 11 | 100 | 11 | 100 | doesn't has the protective effect |  |  |  | no antihistaminic effect | can produce side effects of sedation | no protective effect | doesn't has protective effect |
